From patent US12083089B2, “Compositions and methods for stimulating ventilatory and/or respiratory drive” (CASE WESTERN RESERVE UNIVERSITY, priority 2015, dated 2024)
Marks after values point to notes of the source that are not given here.

What was measured:
[1] = system: conscious male adult Sprague-Dawley rats; assay: Plethysmographic ventilatory responses to test compounds in conscious rats; type: in vivo, rat; details: 500 μmol/kg, i.v., FIG. 2
[2] = system: freely moving adult male Sprague-Dawley rats; assay: Whole-body plethysmography of ventilatory parameters in morphine-treated rats
Method: Permissions, rats, surgical procedures and blinding of protocols. All studies were carried out in accordance with the NIH Guide for the Care and Use of Laboratory Animals (NIH Publication No. […]) revised in 1996. The protocols were approved by the Animal Care and Use Committees of the University of Virginia, Case Western Reserve University and Loma Linda University. In addition, all studies were carried out in compliance with the ARRIVE (Animal Research: Reporting of In Vivo Experiments) guidelines. Adult male Sprague-Dawley rats (Harlan, Madison, WI, USA) were implanted with jugular vein catheters under 2% isoflurane anesthesia and some rats received femoral arterial catheters. The rats were allowed at least four days to recover from surgery before use. All arterial catheters were flushed daily with heparin solution (50 units of heparin in phosphate-buffered saline at 0.1 M, pH 7.4). All catheters were flushed with phosphate-buffered saline (0.1 M, pH 7.4) approximately four hours before commencement of the experiments. All studies were performed in a quiet laboratory with relative humidity of 49±2% and room temperature of 21.4±0.2° C. […] Also, please note that the antinociception and ventilatory studies were done in separate groups of rats so as to not complicate the respiratory measurements. The recording (plethysmography, antinociception) sessions and the arterial blood gas assays were done by a particular investigator who administered the opioid, vehicle or test drug such as d-cystine diME. The syringes containing the vehicle or test drug were made up by another investigator, such that the investigator running the actual experiment was blinded to the treatment protocol. In every case, the data files resulting from a particular study were first collated and analyzed by another investigator in the group.
Ventilatory parameters were recorded in freely moving rats by whole body plethysmography (PLY3223; Data Sciences International, St. Paul, MN). The rats were placed in individual chambers and given 60 min to acclimatize to allow true resting ventilatory parameters to be established. […] The rats received another injection of vehicle or 1-NACme (500 μmol/kg, IV) 15 min later and ventilatory parameters were recorded for a further 60 min.
The provided software (Fine Pointe, BUXCO) constantly corrected digitized values for changes in chamber temperature and humidity. Pressure changes associated with the respiratory waveforms were then converted to volumes (i.e., TV, PIF and PEF) using the algorithm of Epstein and colleagues. Specifically, factoring in chamber temperature and humidity, the cycle analyzers filtered the acquired signals, and BUXCO algorithms (Fine Pointe) generated an array of box flow data that identified a waveform segment as an acceptable breath. From that data vector, the minimum and maximum values were determined. Flows at this point were considered to be “box flow” signals.
The recorded data (1 min bins) and derived parameters, Vt/Ti and Response Area (cumulative percent changes from pre-values) were taken for statistical analyses. The pre-drug 1 min bins excluded occasional marked deviations from resting due to movements or scratching by the rats. These exclusions ensured accurate determinations of baseline parameters. The data are presented as mean±SEM. All data unless other-wise stated (see immediately below) were analyzed by one-way or two-way analysis of variance followed by Student's modified t test with Bonferroni corrections for multiple comparisons between means using the error mean square terms from each ANOVA. A value of P<0.05 denoted the initial level of statistical significance that was modified according to the number of comparisons between means.

[3] = system: freely moving rats; assay: Arterial blood-gas chemistry and A-a gradient in morphine-treated rats; type: in vivo, rat; details: for deleterious actions of morphine on ABG chemistry and A-a gradient: bolus 500 μmol/kg i.v. after morphine 10 mg/kg i.v., Example 1; for deleterious effects of morphine on ABG chemistry and A-a gradient after prior infusion: prior infusion 14.3 μmol/kg/min, total 500 μmol/kg i.v. over 35 min, morphine 10 mg/kg i.v.
[4] = system: conscious rats; assay: Morphine-induced analgesia (paw withdrawal latency assay), Example 1; type: in vivo, rat; details: pretreatment 500 μmol/kg i.v.; morphine 5 mg/kg i.v.
[5] = system: freely moving rats; assay: Tail-flick latency (TFL) test; type: in vivo, rat
[6] = system: rats; assay: Hemodynamics (preliminary toxicology); type: in vivo, rat; details: 500 μmol/kg, i.v.
From the text: FIGS. 11(A-C) illustrate plots showing the effects of test agents (500 μmol/kg, i.v.) on hemodynamic variables. Data are presented mean±SEM (n=8 rats per group).

[7] = system: adult male rats; assay: Hargreaves Hind-paw Latency Test, morphine 1 mg/kg; type: in vivo, rat; details: for Hargreaves hind-paw withdrawal latency: FIG. 24 study
[8] = system: adult male rats; assay: Von Frey Test, morphine 1 mg/kg; type: in vivo, rat; details: for force needed to initiate hind-paw withdrawal (Von Frey): FIG. 25 study
[9] = two injections of L-NACme 500 μmol/kg IV after morphine 10 mg/kg IV
[10] = 500 μmol/kg IV with morphine sulfate 1.0 mg/kg IV
[11] = 500 μmol/kg IV, tested 20 to 30 min post-injection

CCOC(=O)[C@H](N)CS [D-CYSee, D-Cysteine ethyl ester]
total ventilatory responses recorded over the 30 min post-injection period (% baseline), comparison of efficacy [1]: more efficacious that L-CYSee/L-CYSme
ventilatory depressant effects of morphine incl. tidal volume/inspiratory time (Vt/Ti) ([2]; bolus 500 μmol/kg i.v. (D-CYSee 2×500 μmol/kg) after morphine 10 mg/kg i.v., conscious rats, Example 1): sustained reversal
deleterious actions of morphine on ABG chemistry and A-a gradient [3]: sustained reversal
decay of morphine analgesia [4]: decayed more quickly
initial level of analgesia (paw withdrawal latency) elicited by morphine [4]: did not affect

N[C@H](CSSC[C@@H](N)C(=O)O)C(=O)O [D-Cystine, D-cystine]
Frequency: Drug - entire 75 min, % change ([2]; rat, in vivo): +4.5 ± 3.3%
Frequency: Drug - last 15 min, % change ([2]; rat, in vivo): +14.3 ± 2.8*^,† %
Frequency: Drug maximum, % change ([2]; rat, in vivo): −1.2 ± 2.1%
Minute Ventilation: Drug - entire 75 min, % change ([2]; rat, in vivo): −19 ± 5 %
Minute Ventilation: Drug - last 15 min, % change ([2]; rat, in vivo): −2 ± 4*^,† %
Minute Ventilation: Drug maximum, % change ([2]; rat, in vivo): −4.4 ± 2.5%
Tidal Volume: Drug - entire 75 min, % change ([2]; rat, in vivo): −22 ± 4 %
Tidal Volume: Drug - last 15 min, % change ([2]; rat, in vivo): −12 ± 2*^,† %
Tidal Volume: Drug maximum, % change ([2]; rat, in vivo): +3.4 ± 2.2%
immediate effects on Freq, TV or MV ([2]; rat, in vivo): did not elicit immediate effects
return of Freq, TV and MV toward pre-morphine levels versus vehicle-treated rats ([2]; rat, in vivo): returned toward pre-morphine levels more quickly
deleterious actions of morphine on ABG chemistry and A-a gradient [3]: minor delayed effects
changes in ABG chemistry (pH, pCO2, pO2 and sO2) ([3]; freely moving rats, morphine 10 mg/kg IV, then drug 500 μmol/kg IV 15 min later, FIG. 18): returned toward pre-injection levels faster
changes in A-a gradient ([3]; freely moving rats, morphine 10 mg/kg IV, then drug 500 μmol/kg IV 15 min later, FIG. 19): returned toward pre-injection levels
Tail-Flick latency ([5]; 10 min-post drug (time −10 min), D-cystine 500 μmol/kg IV alone): 3.3 ± 0.4 s
Tail-Flick latency ([5]; 20 min post-drug (time 0), D-cystine 500 μmol/kg IV alone): 3.2 ± 0.4 s
antinociceptive effects of morphine (TFL) in drug-pretreated rats ([5]; drug 500 μmol/kg IV 20 min before morphine 10 mg/kg IV): also enhanced
Tail-Flick latency ([5]; post-morphine - 30 min, D-cystine 500 μmol/kg IV pretreated, morphine 10 mg/kg IV): 12 ± 0.0 s
Tail-Flick latency ([5]; post-morphine - 60 min, D-cystine 500 μmol/kg IV pretreated, morphine 10 mg/kg IV): 12 ± 0.0 s
Tail-Flick latency ([5]; post-morphine - 90 min, D-cystine 500 μmol/kg IV pretreated, morphine 10 mg/kg IV): 12 ± 0.0 s
Tail-Flick latency (sec) ([5]; post-morphine - 120 min, D-cystine 500 μmol/kg IV pretreated, morphine 10 mg/kg IV): 12 ± 0.0*^,† sec
Tail-Flick latency (sec) ([5]; post-morphine - 180 min, D-cystine 500 μmol/kg IV pretreated, morphine 10 mg/kg IV): 10.7 ± 0.3*^,† sec
Tail-Flick latency (sec) ([5]; post-morphine - 210 min, D-cystine 500 μmol/kg IV pretreated, morphine 10 mg/kg IV): 7.4 ± 0.3*^,† sec
Tail-Flick latency ([5]; post-morphine - 240 min, D-cystine 500 μmol/kg IV pretreated, morphine 10 mg/kg IV): 5.0 ± 0.3 s
Tail-Flick latency ([5]; post-morphine - 360 min, D-cystine 500 μmol/kg IV pretreated, morphine 10 mg/kg IV): 3.5 ± 0.3 s

N[C@H](CS)C(=O)O [D-cysteine]
deleterious actions of morphine on ABG chemistry and A-a gradient [3]: minimal effects

CCOC(=O)[C@@H](N)CS [L-CYSee, L-Cysteine ethyl ester]
peak inspiratory flow and respiratory drive (Vt/Ti) during infusion ([2]; prior infusion 14.3 μmol/kg/min, total 500 μmol/kg i.v. over 35 min, conscious rats): dramatically increased
subsequent effects of a bolus injection of morphine on ventilation ([2]; prior infusion total 500 μmol/kg i.v. over 35 min, morphine 10 mg/kg i.v.): markedly blunted
effect of a subsequent injection after infusion and morphine ([2]; subsequent injection 250 μmol/kg/min as printed, morphine 10 mg/kg i.v.): prompt beneficial effects
deleterious effects of morphine on ABG chemistry and A-a gradient after prior infusion [3]: virtually eliminated
cardiac output and heart rate [6]: decreases
hemodynamic responses (FIG. 11) [6]: minimal responses
mean arterial blood pressure (MAP) [6]: substantial transient decreases
total peripheral resistance [6]: no changes

COC(=O)[C@@H](N)CS [L-CYSme, L-cysteine methylester]
total ventilatory responses recorded over the 30 min post-injection period (% baseline), comparison of efficacy [1]: as efficacious as L-CYSee

COC(=O)[C@H](CS)NC(C)=O [L-NACme, L-N-acetylcysteine methylester]
total ventilatory responses recorded over the 30 min post-injection period (% baseline), comparison of efficacy [1]: comparatively minor effects
effects on morphine-induced changes in Freq, TV and MV ([2]; 2×500 μmol/kg, IV, morphine 10 mg/kg): only minor effects
Frequency: Drug - entire 75 min, % change [2, 9]: +11 ± 2 %
Minute Ventilation: Drug - entire 75 min, % change [2, 9]: −19 ± 4 %
Tidal Volume: Drug - entire 75 min, % change [2, 9]: −22 ± 3 %

CCOC(=O)[C@@H](N)CO [L-SERee, L-serine ethyl ester]
total ventilatory responses recorded over the 30 min post-injection period (% baseline), comparison of efficacy [1]: minimally active
deleterious effects of morphine on ABG chemistry and A-a gradient after prior infusion [3]: without effect

COC(=O)[C@@H](N)CSSC[C@H](N)C(=O)OC [L-cystine diME]
effect on the antinociception actions of morphine (Hargreaves) [7, 10]: neither thiolester affected
thermal nociception (Hargreaves Testing) when given alone [7, 11]: neither d-cystine diME nor L-cystine diME affected
Hargreaves hind-paw withdrawal latency ([7]; L-cystine diME plus morphine): 18.5 ± 1.1 s
Hargreaves hind-paw withdrawal latency ([7]; given alone, L-cystine diME 500 μmol/kg IV, morphine sulfate 1 mg/kg IV): 12.0 ± 0.5 s
Hargreaves hind-paw withdrawal latency ([7]; morphine+L-cystine diME): 17.2 ± 0.9 s
effect on the antinociception actions of morphine (Von Frey) [8, 10]: neither thiolester affected
mechanical allodynia (Von Frey Testing) when given alone [8, 11]: neither d-cystine diME nor L-cystine diME affected
force needed to initiate hind-paw withdrawal (Von Frey) ([8]; L-Cystine diME+morphine): 87.3 ± 4.2 g
force needed to initiate hind-paw withdrawal (Von Frey) ([8]; given alone, L-cystine diME 500 μmol/kg IV, morphine 1 mg/kg IV): 51.0 ± 7.6 g
force needed to initiate hind-paw withdrawal (Von Frey) ([8]; morphine+L-Cystine diME): 86.9 ± 5.2 g
